According to patent US10167300B2, “Metalloenzyme inhibitor compounds as fungicides” (priority 2014, dated 2019):

Test system: Mycosphaerella graminicola; Anamorph: Septoria tritici; Bayer Code SEPTTR (standard laboratory isolate, SI SEPTTR)
Assay: Type A (high volume) assay, leaf blotch of wheat, standard laboratory SEPTTR isolate (SI SEPTTR)
Assay type: in vivo, Mycosphaerella graminicola on wheat plants (variety Yuma)
Conditions: Zymoseptoria tritici, 24 h, standard laboratory isolate; high volume; 50 ppm; 1 Day Protectant; wheat (Yuma); read-out: Disease Control, SI SEPTTR Type A Assay (50 ppm) 1 DP
How it was run: (§1)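 Wheat seedlings (Yuma, first leaf emerged) sprayed with acetone/Triton X-100 solutions (Type A) or 10% EC diluted in 0.1% Trycol at 200 L/ha (Type B), inoculated before or after spraying. Inoculated plants held 3 days at 20 °C, 100% RH, then greenhouse; % disease control from severity versus untreated plants.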

SMILES | pest or weed control at 50 ppm [%]
CC(C)(C)C(O)(c1cncnc1)c1ccc(-c2ccc(C3(C#N)CC3)cc2)cn1 (centres unmarked) [Compound 105] | 80 to 100
CC(C)(C)C(O)(c1cccnc1)c1ccc(-c2ccc(OC(F)(F)F)cc2)cn1 (centres unmarked) [Compound 80] | 80 to 100
CCC(C)(C)C(O)(Cc1cncnc1)c1ccc(-c2ccc(Cl)cc2)cn1 (centres unmarked) [Compound 57] | 80 to 100
CC(C)(C)C(O)(c1cncnc1)c1ccc(-c2ccc(C(F)(F)F)nc2)cn1 (centres unmarked) [Compound 107] | 80 to 100
CC(C)(C)C(O)(c1cncnc1)c1ccc(-c2ccccc2OC(F)(F)F)cn1 (centres unmarked) [Compound 104] | 80 to 100
OC(c1cncnc1)(c1ccc(Oc2ccc(C(F)(F)F)cc2)cn1)C1CC1 (centres unmarked) [Compound 17] | 80 to 100
CC(C)(C#N)c1ccc(-c2ccc(C(O)(c3cncnc3)C(C)(C)C)nc2)cc1 (centres unmarked) [Compound 152] | 80 to 100
OC(c1ccc(-c2ccc(OC(F)(F)F)cc2)cn1)(c1cncs1)C1CC1 (centres unmarked) [Compound 89] | 80 to 100
CC(C)(C)C(O)(Cc1cncnc1)c1ccc(-c2ccc(OC(F)(F)F)cc2)cn1 (centres unmarked) [Compound 74] | 80 to 100
CC(C)C(O)(c1cncnc1)c1ccc(-c2ccc(OC(F)(F)F)cc2)cn1 (centres unmarked) [Compound 63] | 80 to 100

Same assay, conditions: Zymoseptoria tritici, 72 h, standard laboratory isolate; high volume; 50 ppm; 3 Day Curative; wheat (Yuma); read-out: Disease Control, SI SEPTTR Type A Assay (50 ppm) 3 DC

SMILES | pest or weed control at 50 ppm [%]
CC(C)C(O)(c1cncnc1)c1ccc(Oc2ccc(C(F)(F)F)cc2)cn1 (centres unmarked) [Compound 3, 2-methyl-1-(pyrimidin-5-yl)-1-(5-(4-(trifluoromethyl)-phenoxy)pyridin-2-yl)propan-1-ol] | 80 to 100
CCC(C)(C)C(O)(Cc1cncnc1)c1ccc(-c2ccc(Cl)cc2)cn1 (centres unmarked) [Compound 57] | 80 to 100
OC(c1cncnc1)(c1ccc(Oc2ccc(C(F)(F)F)cc2)cn1)C1CC1 (centres unmarked) [Compound 17] | 80 to 100
CC(C)C(O)(c1cncnc1)c1ccc(-c2ccc(OC(F)(F)F)cc2)cn1 (centres unmarked) [Compound 63] | 80 to 100

Same assay, conditions: standard laboratory isolate; high volume; 50 ppm; 1 Day Protectant; wheat (Yuma)

SMILES | Disease Control, SI SEPTTR Type A Assay (50 ppm) 1 DP
CC(C)C(O)(c1cncnc1)c1ccc(Oc2ccc(C(F)(F)F)cc2)cn1 (centres unmarked) [Compound 3, 2-methyl-1-(pyrimidin-5-yl)-1-(5-(4-(trifluoromethyl)-phenoxy)pyridin-2-yl)propan-1-ol] | D (<40)

Test system: not listed separately
Assay: Type B (low volume, EC formulation, track sprayer 200 L/ha) assay, leaf blotch of wheat, SEPTTR field isolate (FI SEPTTR)
Assay type: in vivo, Mycosphaerella graminicola on wheat plants (variety Yuma)
Conditions: Zymoseptoria tritici, 72 h, field isolate; low volume EC; 100 g/ha; 3 Day Curative; wheat (Yuma); read-out: Disease Control, FI SEPTTR Type B Assay (100 g/ha) 3 DC
How it was run: as §1

SMILES | pest or weed control at 100 g/ha [%]
CC(C)C(O)(c1cncnc1)c1ccc(Oc2ccc(C(F)(F)F)cc2)cn1 (centres unmarked) [Compound 3, 2-methyl-1-(pyrimidin-5-yl)-1-(5-(4-(trifluoromethyl)-phenoxy)pyridin-2-yl)propan-1-ol] | 60 to 79
CC(C)(C)C(O)(c1cncnc1)c1ccc(-c2ccc(C3(C#N)CC3)cc2)cn1 (centres unmarked) [Compound 105] | 80 to 100
CC(C)(C)C(O)(c1cccnc1)c1ccc(-c2ccc(OC(F)(F)F)cc2)cn1 (centres unmarked) [Compound 80] | 80 to 100
CCC(C)(C)C(O)(Cc1cncnc1)c1ccc(-c2ccc(Cl)cc2)cn1 (centres unmarked) [Compound 57] | < 40
CC(C)(C)C(O)(c1cncnc1)c1ccc(-c2ccc(C(F)(F)F)nc2)cn1 (centres unmarked) [Compound 107] | 80 to 100
CC(C)(C)C(O)(c1cncnc1)c1ccc(-c2ccccc2OC(F)(F)F)cn1 (centres unmarked) [Compound 104] | < 40
OC(c1cncnc1)(c1ccc(Oc2ccc(C(F)(F)F)cc2)cn1)C1CC1 (centres unmarked) [Compound 17] | 60 to 79
CC(C)(C#N)c1ccc(-c2ccc(C(O)(c3cncnc3)C(C)(C)C)nc2)cc1 (centres unmarked) [Compound 152] | 80 to 100
OC(c1ccc(-c2ccc(OC(F)(F)F)cc2)cn1)(c1cncs1)C1CC1 (centres unmarked) [Compound 89] | 40 to 59
CC(C)(C)C(O)(Cc1cncnc1)c1ccc(-c2ccc(OC(F)(F)F)cc2)cn1 (centres unmarked) [Compound 74] | 40 to 59
CC(C)C(O)(c1cncnc1)c1ccc(-c2ccc(OC(F)(F)F)cc2)cn1 (centres unmarked) [Compound 63] | 40 to 59

Same assay, conditions: Zymoseptoria tritici, 72 h, field isolate; low volume EC; 100 g/ha; 3 Day Protectant; wheat (Yuma); read-out: Disease Control, FI SEPTTR Type B Assay (100 g/ha) 3 DP

SMILES | pest or weed control at 100 g/ha [%]
CC(C)C(O)(c1cncnc1)c1ccc(Oc2ccc(C(F)(F)F)cc2)cn1 (centres unmarked) [Compound 3, 2-methyl-1-(pyrimidin-5-yl)-1-(5-(4-(trifluoromethyl)-phenoxy)pyridin-2-yl)propan-1-ol] | 40 to 59
CC(C)(C)C(O)(c1cncnc1)c1ccc(-c2ccc(C3(C#N)CC3)cc2)cn1 (centres unmarked) [Compound 105] | 80 to 100
CC(C)(C)C(O)(c1cccnc1)c1ccc(-c2ccc(OC(F)(F)F)cc2)cn1 (centres unmarked) [Compound 80] | 80 to 100
CCC(C)(C)C(O)(Cc1cncnc1)c1ccc(-c2ccc(Cl)cc2)cn1 (centres unmarked) [Compound 57] | < 40
CC(C)(C)C(O)(c1cncnc1)c1ccc(-c2ccc(C(F)(F)F)nc2)cn1 (centres unmarked) [Compound 107] | 60 to 79
CC(C)(C)C(O)(c1cncnc1)c1ccc(-c2ccccc2OC(F)(F)F)cn1 (centres unmarked) [Compound 104] | 80 to 100
OC(c1cncnc1)(c1ccc(Oc2ccc(C(F)(F)F)cc2)cn1)C1CC1 (centres unmarked) [Compound 17] | 60 to 79
CC(C)(C#N)c1ccc(-c2ccc(C(O)(c3cncnc3)C(C)(C)C)nc2)cc1 (centres unmarked) [Compound 152] | 80 to 100
OC(c1ccc(-c2ccc(OC(F)(F)F)cc2)cn1)(c1cncs1)C1CC1 (centres unmarked) [Compound 89] | 60 to 79
CC(C)(C)C(O)(Cc1cncnc1)c1ccc(-c2ccc(OC(F)(F)F)cc2)cn1 (centres unmarked) [Compound 74] | < 40
CC(C)C(O)(c1cncnc1)c1ccc(-c2ccc(OC(F)(F)F)cc2)cn1 (centres unmarked) [Compound 63] | 60 to 79

Test system: Mycosphaerella graminicola; Anamorph: Septoria tritici; Bayer Code SEPTTR (standard laboratory isolate, SI SEPTTR)
Assay: Type B (low volume, EC formulation, track sprayer 200 L/ha) assay, leaf blotch of wheat, standard laboratory SEPTTR isolate (SI SEPTTR)
Assay type: in vivo, Mycosphaerella graminicola on wheat plants (variety Yuma)
Conditions: Zymoseptoria tritici, 72 h; standard laboratory isolate; low volume EC; 100 g/ha; 3 Day Curative; wheat (Yuma); read-out: Disease Control, SI SEPTTR Type B Assay (100 g/ha) 3 DC
Experimental: Example A: Evaluation of Fungicidal Activity: Leaf Blotch of Wheat (Mycosphaerella graminicola; Anamorph: Septoria tritici; Bayer Code SEPTTR)
For Type A assays, technical grades of the experimental fungicides in Table 4 below were dissolved in acetone, and then mixed with nine volumes of water containing 110 ppm Triton X-100. The fungicide solutions were applied onto wheat seedlings using an automated booth sprayer. For Type B assays, emulsifiable concentrate (EC) formulations of technical grades of the experimental fungicides in Table 4 below were prepared at 10% (w/v), and then mixed with 150 volumes of 0.1% Trycol 5941. These solutions were applied onto wheat seedlings using an automated track sprayer at 200 L/ha. All sprayed plants were allowed to air dry prior to further handling.
Wheat plants (variety Yuma) were grown from seed in a greenhouse in 50% mineral soil/50% soil-less Metro mix until the first leaf was fully emerged, with 7-10 seedlings per pot. Prior to or after application of experimental fungicides, plants were inoculated either with spores of a standard laboratory SEPTTR isolate (SI SEPTTR) or with spores from a SEPTTR field isolate collected from Wellsbourne, England in 2012 (FI SEPTTR). After inoculation the plants were kept for 3 days at 20° C. in 100% relative humidity (one day in a dark dew chamber followed by two days in a lighted dew chamber). Plants were then transferred to a 20° C. greenhouse for disease development. When disease symptoms were fully expressed on untreated plants, infection levels on treated plants were assessed on a scale of 0 to 100 percent disease severity. Percent disease control was calculated using the ratio of disease severity on treated plants relative to untreated plants.

SMILES | pest or weed control at 100 g/ha [%]
CC(C)C(O)(c1cncnc1)c1ccc(Oc2ccc(C(F)(F)F)cc2)cn1 (centres unmarked) [Compound 3, 2-methyl-1-(pyrimidin-5-yl)-1-(5-(4-(trifluoromethyl)-phenoxy)pyridin-2-yl)propan-1-ol] | 80 to 100
CC(C)(C)C(O)(c1cncnc1)c1ccc(-c2ccc(C3(C#N)CC3)cc2)cn1 (centres unmarked) [Compound 105] | 80 to 100
CC(C)(C)C(O)(c1cccnc1)c1ccc(-c2ccc(OC(F)(F)F)cc2)cn1 (centres unmarked) [Compound 80] | 80 to 100
CCC(C)(C)C(O)(Cc1cncnc1)c1ccc(-c2ccc(Cl)cc2)cn1 (centres unmarked) [Compound 57] | 80 to 100
CC(C)(C)C(O)(c1cncnc1)c1ccc(-c2ccc(C(F)(F)F)nc2)cn1 (centres unmarked) [Compound 107] | 80 to 100
CC(C)(C)C(O)(c1cncnc1)c1ccc(-c2ccccc2OC(F)(F)F)cn1 (centres unmarked) [Compound 104] | 80 to 100
OC(c1cncnc1)(c1ccc(Oc2ccc(C(F)(F)F)cc2)cn1)C1CC1 (centres unmarked) [Compound 17] | 80 to 100
CC(C)(C#N)c1ccc(-c2ccc(C(O)(c3cncnc3)C(C)(C)C)nc2)cc1 (centres unmarked) [Compound 152] | 80 to 100
OC(c1ccc(-c2ccc(OC(F)(F)F)cc2)cn1)(c1cncs1)C1CC1 (centres unmarked) [Compound 89] | 80 to 100
CC(C)(C)C(O)(Cc1cncnc1)c1ccc(-c2ccc(OC(F)(F)F)cc2)cn1 (centres unmarked) [Compound 74] | 80 to 100
CC(C)C(O)(c1cncnc1)c1ccc(-c2ccc(OC(F)(F)F)cc2)cn1 (centres unmarked) [Compound 63] | 80 to 100

Same assay, conditions: Zymoseptoria tritici, 72 h; standard laboratory isolate; low volume EC; 100 g/ha; 3 Day Protectant; wheat (Yuma); read-out: Disease Control, SI SEPTTR Type B Assay (100 g/ha) 3 DP

SMILES | pest or weed control at 100 g/ha [%]
CC(C)C(O)(c1cncnc1)c1ccc(Oc2ccc(C(F)(F)F)cc2)cn1 (centres unmarked) [Compound 3, 2-methyl-1-(pyrimidin-5-yl)-1-(5-(4-(trifluoromethyl)-phenoxy)pyridin-2-yl)propan-1-ol] | 80 to 100
CC(C)(C)C(O)(c1cncnc1)c1ccc(-c2ccc(C3(C#N)CC3)cc2)cn1 (centres unmarked) [Compound 105] | 80 to 100
CC(C)(C)C(O)(c1cccnc1)c1ccc(-c2ccc(OC(F)(F)F)cc2)cn1 (centres unmarked) [Compound 80] | 80 to 100
CCC(C)(C)C(O)(Cc1cncnc1)c1ccc(-c2ccc(Cl)cc2)cn1 (centres unmarked) [Compound 57] | 80 to 100
CC(C)(C)C(O)(c1cncnc1)c1ccc(-c2ccc(C(F)(F)F)nc2)cn1 (centres unmarked) [Compound 107] | 60 to 79
CC(C)(C)C(O)(c1cncnc1)c1ccc(-c2ccccc2OC(F)(F)F)cn1 (centres unmarked) [Compound 104] | 80 to 100
OC(c1cncnc1)(c1ccc(Oc2ccc(C(F)(F)F)cc2)cn1)C1CC1 (centres unmarked) [Compound 17] | 80 to 100
CC(C)(C#N)c1ccc(-c2ccc(C(O)(c3cncnc3)C(C)(C)C)nc2)cc1 (centres unmarked) [Compound 152] | 80 to 100
OC(c1ccc(-c2ccc(OC(F)(F)F)cc2)cn1)(c1cncs1)C1CC1 (centres unmarked) [Compound 89] | 80 to 100
CC(C)(C)C(O)(Cc1cncnc1)c1ccc(-c2ccc(OC(F)(F)F)cc2)cn1 (centres unmarked) [Compound 74] | 80 to 100
CC(C)C(O)(c1cncnc1)c1ccc(-c2ccc(OC(F)(F)F)cc2)cn1 (centres unmarked) [Compound 63] | 80 to 100
